In ChEMBL document CHEMBL4507273 (2021):

Columns and labels:
[1] = target: Casein kinase I isoform delta (Homo sapiens) (UniProt P48730); conditions: Compound concentration 1000.0 nM
[2] = target: Cyclin-dependent kinase 4 (Homo sapiens) (UniProt P11802); conditions: Compound concentration 1000.0 nM
[3] = target: Myosin light chain kinase, smooth muscle (Homo sapiens) (UniProt Q15746); conditions: Compound concentration 1000.0 nM
[4] = target: Insulin-like growth factor 1 receptor (Homo sapiens) (UniProt P08069); conditions: Compound concentration 1000.0 nM
[5] = target: Ribosomal protein S6 kinase alpha-3 (Homo sapiens) (UniProt P51812); conditions: Compound concentration 1000.0 nM
[6] = target: Beta-adrenergic receptor kinase 1 (Homo sapiens) (UniProt P25098); conditions: Compound concentration 1000.0 nM
[7] = target: Serine/threonine-protein kinase Nek3 (Homo sapiens) (UniProt P51956); conditions: Compound concentration 1000.0 nM
[8] = target: Sodium-dependent noradrenaline transporter (Homo sapiens, UniProt P23975); assay: GPCRScan assay: inhibition of NET; design: radioligand conc. used [nm] 1.3 – 5.0, parental cells stable HEK
[9] = target: Serine/threonine-protein kinase SIK1 (Homo sapiens) (UniProt P57059); conditions: Compound concentration 1000.0 nM
[10] = target: Phosphatidylinositol 5-phosphate 4-kinase type-2 beta (Homo sapiens) (UniProt P78356); conditions: Compound concentration 1000.0 nM
[11] = target: Ribosomal protein S6 kinase alpha-1 (Homo sapiens) (UniProt Q15418); conditions: Compound concentration 1000.0 nM
[12] = target: Phosphatidylinositol 4-phosphate 5-kinase type-1 gamma (Homo sapiens) (UniProt O60331); conditions: Compound concentration 1000.0 nM
[13] = target: Bone morphogenetic protein receptor type-1B (Homo sapiens) (UniProt O00238); conditions: Compound concentration 1000.0 nM
[14] = target: Ephrin type-B receptor 2 (Homo sapiens) (UniProt P29323); conditions: Compound concentration 1000.0 nM
[15] = test system: Leucine-rich repeat serine/threonine-protein kinase 2 (Homo sapiens), Q5S007 [G2019S]; conditions: Compound concentration 1000.0 nM
[16] = target: Tyrosine-protein kinase Fyn (Homo sapiens) (UniProt P06241); conditions: Compound concentration 1000.0 nM
[17] = test system: Mast/stem cell growth factor receptor Kit (Homo sapiens), P10721 [A829P]; conditions: Compound concentration 1000.0 nM
[18] = target: cAMP-dependent protein kinase catalytic subunit beta (Homo sapiens) (UniProt P22694); conditions: Compound concentration 1000.0 nM
[19] = target: Ephrin type-B receptor 6 (Homo sapiens) (UniProt O15197); conditions: Compound concentration 1000.0 nM
[20] = target: Inhibitor of nuclear factor kappa-B kinase subunit alpha (Homo sapiens) (UniProt O15111); conditions: Compound concentration 1000.0 nM
[21] = target: Mitogen-activated protein kinase kinase kinase 6 (Homo sapiens) (UniProt O95382); conditions: Compound concentration 1000.0 nM
[22] = target: D(1B) dopamine receptor (Homo sapiens) (UniProt P21918); conditions: Compound concentration 10.0 uM
[23] = target: Serine/threonine-protein kinase pim-3 (Homo sapiens) (UniProt Q86V86); conditions: Compound concentration 1000.0 nM
[24] = target: Dual specificity mitogen-activated protein kinase kinase 7 (Homo sapiens) (UniProt O14733); conditions: Compound concentration 1000.0 nM
[25] = target: Histamine H2 receptor (Homo sapiens, UniProt P25021); assay: GPCRScan assay: inhibition of H2; design: radioligand conc. used [nm] 0.02 – 0.05, parental cells Stable HEK
[26] = target: Fibroblast growth factor receptor 1 (Homo sapiens) (UniProt P11362); conditions: Compound concentration 1000.0 nM
[27] = test system: Serine/threonine-protein kinase B-raf (Homo sapiens), P15056 [V600E]; conditions: Compound concentration 1000.0 nM
[28] = target: Membrane-associated tyrosine- and threonine-specific cdc2-inhibitory kinase (Homo sapiens) (UniProt Q99640); conditions: Compound concentration 1000.0 nM
[29] = target: T1, Alpha-2B adrenergic receptor (Homo sapiens) (UniProt P18089); conditions: Compound concentration 10.0 uM
T1 sequence (whole entry): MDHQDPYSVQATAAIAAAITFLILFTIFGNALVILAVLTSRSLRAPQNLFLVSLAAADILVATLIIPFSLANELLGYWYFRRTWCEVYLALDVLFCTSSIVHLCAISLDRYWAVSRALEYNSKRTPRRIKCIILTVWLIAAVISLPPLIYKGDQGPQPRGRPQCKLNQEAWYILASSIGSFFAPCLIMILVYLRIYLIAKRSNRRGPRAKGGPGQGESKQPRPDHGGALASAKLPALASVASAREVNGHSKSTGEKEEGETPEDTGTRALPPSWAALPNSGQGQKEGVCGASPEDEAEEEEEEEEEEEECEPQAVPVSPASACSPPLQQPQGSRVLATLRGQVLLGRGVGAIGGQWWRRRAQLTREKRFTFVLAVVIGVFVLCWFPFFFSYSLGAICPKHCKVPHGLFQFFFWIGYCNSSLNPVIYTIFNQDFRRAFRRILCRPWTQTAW

[30] = test system: Phosphatidylinositol 4,5-bisphosphate 3-kinase catalytic subunit alpha isoform (Homo sapiens), P42336 [H1047Y]; conditions: Compound concentration 1000.0 nM
[31] = target: Tyrosine-protein kinase ABL1 (Homo sapiens) (UniProt P00519); conditions: Compound concentration 1000.0 nM
[32] = target: Ribosomal protein S6 kinase alpha-3 (Homo sapiens) (UniProt P51812); conditions: Compound concentration 1000.0 nM; remark: listed apart in the source
[33] = target: Protein kinase C theta type (Homo sapiens) (UniProt Q04759); conditions: Compound concentration 1000.0 nM
[34] = target: Mitogen-activated protein kinase 12 (Homo sapiens) (UniProt P53778); conditions: Compound concentration 1000.0 nM
[35] = target: Serine/threonine-protein kinase 32B (Homo sapiens) (UniProt Q9NY57); conditions: Compound concentration 1000.0 nM
[36] = target: Atypical kinase COQ8A, mitochondrial (Homo sapiens) (UniProt Q8NI60); conditions: Compound concentration 1000.0 nM
[37] = target: Serine/threonine-protein kinase Nek11 (Homo sapiens) (UniProt Q8NG66); conditions: Compound concentration 1000.0 nM
[38] = target: Tyrosine-protein kinase Mer (Homo sapiens) (UniProt Q12866); conditions: Compound concentration 1000.0 nM
[39] = target: Cytoplasmic tyrosine-protein kinase BMX (Homo sapiens) (UniProt P51813); conditions: Compound concentration 1000.0 nM

Sequence of Histamine H2 receptor (P25021 whole entry): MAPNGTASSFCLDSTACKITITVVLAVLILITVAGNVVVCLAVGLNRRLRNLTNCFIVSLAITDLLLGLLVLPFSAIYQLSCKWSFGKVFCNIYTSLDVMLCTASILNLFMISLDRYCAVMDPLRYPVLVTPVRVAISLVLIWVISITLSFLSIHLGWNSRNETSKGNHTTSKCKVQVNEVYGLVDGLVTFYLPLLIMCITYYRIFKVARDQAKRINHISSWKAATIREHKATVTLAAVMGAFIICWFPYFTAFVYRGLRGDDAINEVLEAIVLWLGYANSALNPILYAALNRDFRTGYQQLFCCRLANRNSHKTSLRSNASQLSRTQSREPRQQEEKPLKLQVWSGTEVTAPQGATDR
Sequence of Sodium-dependent noradrenaline transporter (P23975 whole entry): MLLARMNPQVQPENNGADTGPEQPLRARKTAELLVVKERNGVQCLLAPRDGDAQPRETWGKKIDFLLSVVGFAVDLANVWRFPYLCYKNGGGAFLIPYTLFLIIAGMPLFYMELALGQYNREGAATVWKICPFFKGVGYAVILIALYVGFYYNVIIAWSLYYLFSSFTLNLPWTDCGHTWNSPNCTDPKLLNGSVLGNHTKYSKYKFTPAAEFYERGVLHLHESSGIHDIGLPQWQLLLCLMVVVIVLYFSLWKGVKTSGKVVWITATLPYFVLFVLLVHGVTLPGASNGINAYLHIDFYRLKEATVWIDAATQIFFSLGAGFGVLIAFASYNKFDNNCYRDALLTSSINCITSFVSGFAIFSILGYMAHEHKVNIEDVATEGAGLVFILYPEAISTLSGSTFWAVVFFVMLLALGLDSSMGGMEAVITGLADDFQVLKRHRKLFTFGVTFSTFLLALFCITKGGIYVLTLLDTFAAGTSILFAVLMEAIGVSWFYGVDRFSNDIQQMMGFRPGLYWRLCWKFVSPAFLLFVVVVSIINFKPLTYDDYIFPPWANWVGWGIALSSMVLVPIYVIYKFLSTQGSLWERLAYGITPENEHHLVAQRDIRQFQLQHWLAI
Sequence of Ribosomal protein S6 kinase alpha-3 (Homo sapiens) (P51812 whole entry): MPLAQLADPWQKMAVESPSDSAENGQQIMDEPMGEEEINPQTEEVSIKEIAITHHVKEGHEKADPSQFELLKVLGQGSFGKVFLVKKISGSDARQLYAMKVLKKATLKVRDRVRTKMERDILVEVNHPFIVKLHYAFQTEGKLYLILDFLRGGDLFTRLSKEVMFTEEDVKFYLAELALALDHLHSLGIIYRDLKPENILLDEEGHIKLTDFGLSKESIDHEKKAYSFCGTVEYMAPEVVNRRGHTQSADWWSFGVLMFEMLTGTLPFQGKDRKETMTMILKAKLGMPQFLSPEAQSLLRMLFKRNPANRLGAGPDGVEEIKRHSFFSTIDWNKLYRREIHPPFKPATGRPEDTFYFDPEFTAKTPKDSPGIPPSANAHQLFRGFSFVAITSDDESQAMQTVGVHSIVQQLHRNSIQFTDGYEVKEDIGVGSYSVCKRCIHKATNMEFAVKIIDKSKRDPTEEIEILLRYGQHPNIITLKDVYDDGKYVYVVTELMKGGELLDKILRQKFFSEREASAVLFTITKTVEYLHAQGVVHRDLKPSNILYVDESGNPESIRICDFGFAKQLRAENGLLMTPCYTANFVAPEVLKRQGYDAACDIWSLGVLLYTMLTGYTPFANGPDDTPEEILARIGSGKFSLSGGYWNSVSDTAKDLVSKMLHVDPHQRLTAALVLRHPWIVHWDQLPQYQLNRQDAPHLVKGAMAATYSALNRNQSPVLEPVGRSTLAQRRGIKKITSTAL
Sequence of Leucine-rich repeat serine/threonine-protein kinase 2 (Homo sapiens), Q5S007 [G2019S] (Q5S007 whole entry G2019S): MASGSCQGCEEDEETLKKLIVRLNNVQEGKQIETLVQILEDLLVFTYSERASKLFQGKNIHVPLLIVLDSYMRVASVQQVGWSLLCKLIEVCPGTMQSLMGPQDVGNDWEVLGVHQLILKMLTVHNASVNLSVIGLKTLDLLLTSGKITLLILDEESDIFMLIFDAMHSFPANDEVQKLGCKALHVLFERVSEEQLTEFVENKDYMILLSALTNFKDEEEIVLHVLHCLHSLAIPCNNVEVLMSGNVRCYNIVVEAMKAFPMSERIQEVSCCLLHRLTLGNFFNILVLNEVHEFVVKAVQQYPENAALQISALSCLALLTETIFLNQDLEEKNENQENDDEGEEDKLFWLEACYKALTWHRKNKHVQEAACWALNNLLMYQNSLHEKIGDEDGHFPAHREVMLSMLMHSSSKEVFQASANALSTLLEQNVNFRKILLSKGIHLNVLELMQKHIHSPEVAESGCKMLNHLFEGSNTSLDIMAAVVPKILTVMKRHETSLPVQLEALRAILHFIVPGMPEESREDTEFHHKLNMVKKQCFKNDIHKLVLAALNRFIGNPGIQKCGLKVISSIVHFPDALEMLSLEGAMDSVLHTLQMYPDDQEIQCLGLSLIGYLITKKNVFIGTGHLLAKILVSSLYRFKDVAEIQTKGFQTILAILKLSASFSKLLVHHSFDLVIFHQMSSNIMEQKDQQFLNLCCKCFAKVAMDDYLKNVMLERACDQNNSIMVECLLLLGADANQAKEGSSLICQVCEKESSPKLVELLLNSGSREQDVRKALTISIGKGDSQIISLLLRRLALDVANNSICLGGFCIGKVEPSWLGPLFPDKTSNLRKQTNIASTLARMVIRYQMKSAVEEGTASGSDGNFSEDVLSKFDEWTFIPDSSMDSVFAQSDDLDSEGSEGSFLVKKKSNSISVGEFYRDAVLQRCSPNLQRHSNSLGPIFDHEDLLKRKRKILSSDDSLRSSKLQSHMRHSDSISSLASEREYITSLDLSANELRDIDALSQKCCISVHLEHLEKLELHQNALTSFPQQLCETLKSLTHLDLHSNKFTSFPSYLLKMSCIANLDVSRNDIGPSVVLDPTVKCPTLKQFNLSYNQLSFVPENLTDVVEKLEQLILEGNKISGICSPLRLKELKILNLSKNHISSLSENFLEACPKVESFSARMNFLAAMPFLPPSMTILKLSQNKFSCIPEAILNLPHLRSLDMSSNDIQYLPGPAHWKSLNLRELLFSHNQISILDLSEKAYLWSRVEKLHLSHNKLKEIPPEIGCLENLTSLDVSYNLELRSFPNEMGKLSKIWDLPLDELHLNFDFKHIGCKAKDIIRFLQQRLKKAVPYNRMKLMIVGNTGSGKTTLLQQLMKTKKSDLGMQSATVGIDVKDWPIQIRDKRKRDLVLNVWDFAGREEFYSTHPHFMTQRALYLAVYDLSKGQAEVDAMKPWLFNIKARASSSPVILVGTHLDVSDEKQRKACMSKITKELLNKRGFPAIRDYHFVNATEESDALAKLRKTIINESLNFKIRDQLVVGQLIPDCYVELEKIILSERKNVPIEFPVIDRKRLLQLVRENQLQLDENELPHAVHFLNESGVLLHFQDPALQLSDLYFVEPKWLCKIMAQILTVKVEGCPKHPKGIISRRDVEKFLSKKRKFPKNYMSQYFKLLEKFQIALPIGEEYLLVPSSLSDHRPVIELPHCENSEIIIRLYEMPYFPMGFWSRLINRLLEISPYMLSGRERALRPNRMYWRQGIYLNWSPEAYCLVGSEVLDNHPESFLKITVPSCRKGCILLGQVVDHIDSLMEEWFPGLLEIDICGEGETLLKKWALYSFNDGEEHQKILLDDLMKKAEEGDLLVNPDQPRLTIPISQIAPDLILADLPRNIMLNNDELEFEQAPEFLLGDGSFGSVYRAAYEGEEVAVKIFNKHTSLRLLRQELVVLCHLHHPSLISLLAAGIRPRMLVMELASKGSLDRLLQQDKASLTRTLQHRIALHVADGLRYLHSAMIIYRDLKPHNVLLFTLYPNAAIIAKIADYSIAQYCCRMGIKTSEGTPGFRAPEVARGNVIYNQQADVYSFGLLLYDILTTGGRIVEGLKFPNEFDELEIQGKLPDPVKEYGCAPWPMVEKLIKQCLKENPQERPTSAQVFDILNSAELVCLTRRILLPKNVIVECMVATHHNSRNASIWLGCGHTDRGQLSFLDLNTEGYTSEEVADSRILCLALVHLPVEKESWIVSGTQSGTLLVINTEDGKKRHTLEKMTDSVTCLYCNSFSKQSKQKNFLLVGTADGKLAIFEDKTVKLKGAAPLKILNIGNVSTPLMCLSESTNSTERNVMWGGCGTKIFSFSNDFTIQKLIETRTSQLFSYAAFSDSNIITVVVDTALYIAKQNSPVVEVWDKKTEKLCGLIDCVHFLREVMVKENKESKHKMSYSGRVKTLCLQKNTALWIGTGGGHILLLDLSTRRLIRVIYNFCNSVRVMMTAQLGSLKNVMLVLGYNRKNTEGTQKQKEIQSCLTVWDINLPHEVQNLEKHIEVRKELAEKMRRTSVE
Sequence of Inhibitor of nuclear factor kappa-B kinase subunit alpha (Homo sapiens) (O15111 whole entry): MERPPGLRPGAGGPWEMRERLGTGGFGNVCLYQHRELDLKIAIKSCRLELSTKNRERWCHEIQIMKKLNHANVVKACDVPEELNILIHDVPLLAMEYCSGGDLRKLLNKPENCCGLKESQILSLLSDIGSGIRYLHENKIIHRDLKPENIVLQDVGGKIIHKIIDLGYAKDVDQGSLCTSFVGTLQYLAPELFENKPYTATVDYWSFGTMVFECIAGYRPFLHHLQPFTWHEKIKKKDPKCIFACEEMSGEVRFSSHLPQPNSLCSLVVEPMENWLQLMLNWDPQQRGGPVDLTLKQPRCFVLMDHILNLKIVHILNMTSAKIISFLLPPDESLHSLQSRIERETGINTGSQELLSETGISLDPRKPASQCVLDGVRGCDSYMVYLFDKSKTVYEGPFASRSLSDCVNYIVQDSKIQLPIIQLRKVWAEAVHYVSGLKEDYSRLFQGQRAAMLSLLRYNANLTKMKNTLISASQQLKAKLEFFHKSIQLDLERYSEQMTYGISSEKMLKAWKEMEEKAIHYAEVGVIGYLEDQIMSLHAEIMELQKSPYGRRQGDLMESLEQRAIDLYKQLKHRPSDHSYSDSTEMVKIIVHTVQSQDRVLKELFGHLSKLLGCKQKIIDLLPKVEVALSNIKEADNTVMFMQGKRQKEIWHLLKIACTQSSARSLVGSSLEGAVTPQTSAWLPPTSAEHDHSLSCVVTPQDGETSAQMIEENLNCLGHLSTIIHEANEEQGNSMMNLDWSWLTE

`CNCc1ccccc1-c1csc([C@H](C)Nc2nc(C)nc3cc(OC)c(OC)cc23)c1` [BAY-294] was tested, and the residual activity [1] was 95%, the residual activity [2] was 96% and the residual activity [3] was 94%. It also gave a residual activity [4] of 100%, a residual activity [5] of 78% and a residual activity [6] of 100%. For the same molecule, the residual activity [7] was 87%, the Ki ([8]; read-out: Ki) was 2080 nM and the residual activity [9] was 100%. The residual activity [10] was 100%, the residual activity [11] was 100% and the residual activity [12] was 100%. For the same molecule, the residual activity [13] was 100%, the residual activity [14] was 100% and the residual activity [15] was 84%. The residual activity [16] was 100%, the residual activity [17] was 100% and the residual activity [18] was 100%. It also gave a residual activity [19] of 87%, a residual activity [20] of 90% and a residual activity [21] of 100%. For the same molecule, the inhibition [22] was 36.6%, the residual activity [23] was 100% and the residual activity [24] was 81%. The Ki ([25]; read-out: Ki) was 21.1 nM, the residual activity [26] was 100% and the residual activity [27] was 84%. It also gave a residual activity [28] of 100%, an inhibition [29] of 82.9% and a residual activity [30] of 100%. For the same molecule, the residual activity [31] was 100%, the residual activity [32] was 100% and the residual activity [33] was 100%. The residual activity [34] was 100%, the residual activity [35] was 100% and the residual activity [36] was 91%. For the same molecule, the residual activity [37] was 100%, the residual activity [38] was 72% and the residual activity [39] was 58%.
Work on `CNCc1ccccc1-c1csc([C@@H](C)Nc2nc(C)nc3cc(OC)c(OC)cc23)c1` [BAY-293] yielded a residual activity [1] of 82%, a residual activity [2] of 90% and a residual activity [3] of 84%. The residual activity [4] was 100%, the residual activity [5] was 76% and the residual activity [6] was 86%. For the same molecule, the residual activity [7] was 100%, the Ki ([8]; read-out: Ki) was 982 nM and the Ki ([8]; read-out: pKi (converted)) was 881 nM. The residual activity [9] was 91%, the residual activity [10] was 100% and the residual activity [11] was 100%. The residual activity [12] was 88%, the residual activity [13] was 83% and the residual activity [14] was 100%. It also gave a residual activity [15] of 72%, a residual activity [16] of 100% and a residual activity [17] of 87%. It also gave a residual activity [18] of 100%, a residual activity [19] of 98% and a residual activity [20] of 100%. For the same molecule, the residual activity [21] was 99%, the inhibition [22] was 32.5% and the residual activity [23] was 83%. The residual activity [24] was 79%, the Ki ([25]; read-out: Ki) was 140 nM and the Ki ([25]; read-out: pKi (converted)) was 140 nM. It also gave a residual activity [26] of 100%, a residual activity [27] of 100% and a residual activity [28] of 93%. The inhibition [29] was 64.2%, the residual activity [30] was 100% and the residual activity [31] was 97%. It also gave a residual activity [32] of 80%, a residual activity [33] of 100% and a residual activity [34] of 100%. It also gave a residual activity [35] of 100%, a residual activity [36] of 92% and a residual activity [37] of 100%. The residual activity [38] was 61% and the residual activity [39] was 49%.
